Measurements: patent US20250215012A1, “IKZF2 DEGRADERS AND USES THEREOF” (REGENTS OF THE UNIVERSITY OF MICHIGAN, priority 2022, published 2025)

Target: IKZF2 (Homo sapiens (Human), UniProt Q96SW2+Q9UKS7)
Test: IKZF2 HiBiT Assay (Jurkat-IKZF2-HiBiT cell line)
Format: cell-based
Conditions: Jurkat-IKZF2-HiBiT cells, 24 hours; for DC50: read-out: HiBit assay degradation analysis DC50; for Dmax: read-out: HiBit assay degradation analysis Dmax
Protocol: Degradation of IKZF2 protein is determined by IKZF2 HiBiT assay using the Jurkat-IKZF2-HiBiT (Promega) cell line. Briefly, cells are seeded in culture medium. Compounds are serially diluted in culture medium, and certain volume of the diluted compounds is added to the appropriate well of the plate. After the addition of compounds, the cells are incubated. At the end of treatment, Nano-Glo HiBiT Lytic Detection Reagent (Promega) is added to each well, and then the plates are incubated at room temperature for a certain time period. The luminescent signal is measured using a CALRIOstar plate reader (BMG Labtech). The readings are normalized to the DMSO-treated cells and the IC50 is calculated by nonlinear regression (four parameters sigmoid fitted with variable slope, least squares fit, and no constraint) analysis using the GraphPad Prism 8 software.
Degradation of IKZF2 protein was determined by IKZF2 HiBiT assay using the Jurkat-IKZF2-HiBiT (Promega) cell line. […] Compounds were serially diluted in culture medium, and 20 μl of the diluted compounds were added to the appropriate wells of the plate. After the addition of compounds, the cells were incubated at 37° C. in an atmosphere of 5% CO2 for 24 hours. At the end of treatment, 40 ul of Nano-Glo HiBiT Lytic Detection Reagent (Promega) was added to each well, and then the plates were incubated at room temperature for 10-20 minutes. The luminescent signal was measured using a CALRIOstar plate reader (BMG Labtech). The readings were normalized to the DMSO-treated cells and the IC50 was calculated by nonlinear regression (four parameters sigmoid fitted with variable slope, least squares fit, and no constraint) analysis using the GraphPad Prism 8 software.

Chain of IKZF2 (Q9UKS7 whole entry): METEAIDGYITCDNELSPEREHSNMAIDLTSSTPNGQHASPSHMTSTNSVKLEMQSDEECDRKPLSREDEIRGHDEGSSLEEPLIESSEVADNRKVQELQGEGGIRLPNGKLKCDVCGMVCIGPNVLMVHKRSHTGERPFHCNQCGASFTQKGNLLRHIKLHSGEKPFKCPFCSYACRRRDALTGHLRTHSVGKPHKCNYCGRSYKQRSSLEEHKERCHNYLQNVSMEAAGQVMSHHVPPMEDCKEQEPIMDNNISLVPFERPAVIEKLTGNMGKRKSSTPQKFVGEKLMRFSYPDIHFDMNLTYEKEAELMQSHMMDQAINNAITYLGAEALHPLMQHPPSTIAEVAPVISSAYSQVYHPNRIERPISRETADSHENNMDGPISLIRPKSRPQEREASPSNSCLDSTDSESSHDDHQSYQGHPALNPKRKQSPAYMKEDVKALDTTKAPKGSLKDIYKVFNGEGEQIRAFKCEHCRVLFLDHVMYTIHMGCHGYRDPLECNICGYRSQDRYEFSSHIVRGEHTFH
Chain of IKZF2 (Q96SW2 whole entry): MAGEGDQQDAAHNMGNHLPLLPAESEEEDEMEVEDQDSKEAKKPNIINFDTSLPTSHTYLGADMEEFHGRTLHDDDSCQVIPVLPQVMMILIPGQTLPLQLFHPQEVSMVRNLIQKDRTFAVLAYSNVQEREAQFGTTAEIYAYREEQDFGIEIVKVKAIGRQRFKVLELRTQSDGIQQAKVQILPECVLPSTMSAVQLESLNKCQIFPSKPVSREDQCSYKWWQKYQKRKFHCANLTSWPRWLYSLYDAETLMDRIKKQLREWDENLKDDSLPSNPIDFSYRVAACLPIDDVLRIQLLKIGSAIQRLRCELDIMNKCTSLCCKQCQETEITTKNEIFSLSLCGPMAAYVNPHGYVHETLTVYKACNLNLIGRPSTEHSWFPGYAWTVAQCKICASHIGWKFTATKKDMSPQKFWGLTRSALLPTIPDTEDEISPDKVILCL
Chain of IKZF2 (Q16531 whole entry partner): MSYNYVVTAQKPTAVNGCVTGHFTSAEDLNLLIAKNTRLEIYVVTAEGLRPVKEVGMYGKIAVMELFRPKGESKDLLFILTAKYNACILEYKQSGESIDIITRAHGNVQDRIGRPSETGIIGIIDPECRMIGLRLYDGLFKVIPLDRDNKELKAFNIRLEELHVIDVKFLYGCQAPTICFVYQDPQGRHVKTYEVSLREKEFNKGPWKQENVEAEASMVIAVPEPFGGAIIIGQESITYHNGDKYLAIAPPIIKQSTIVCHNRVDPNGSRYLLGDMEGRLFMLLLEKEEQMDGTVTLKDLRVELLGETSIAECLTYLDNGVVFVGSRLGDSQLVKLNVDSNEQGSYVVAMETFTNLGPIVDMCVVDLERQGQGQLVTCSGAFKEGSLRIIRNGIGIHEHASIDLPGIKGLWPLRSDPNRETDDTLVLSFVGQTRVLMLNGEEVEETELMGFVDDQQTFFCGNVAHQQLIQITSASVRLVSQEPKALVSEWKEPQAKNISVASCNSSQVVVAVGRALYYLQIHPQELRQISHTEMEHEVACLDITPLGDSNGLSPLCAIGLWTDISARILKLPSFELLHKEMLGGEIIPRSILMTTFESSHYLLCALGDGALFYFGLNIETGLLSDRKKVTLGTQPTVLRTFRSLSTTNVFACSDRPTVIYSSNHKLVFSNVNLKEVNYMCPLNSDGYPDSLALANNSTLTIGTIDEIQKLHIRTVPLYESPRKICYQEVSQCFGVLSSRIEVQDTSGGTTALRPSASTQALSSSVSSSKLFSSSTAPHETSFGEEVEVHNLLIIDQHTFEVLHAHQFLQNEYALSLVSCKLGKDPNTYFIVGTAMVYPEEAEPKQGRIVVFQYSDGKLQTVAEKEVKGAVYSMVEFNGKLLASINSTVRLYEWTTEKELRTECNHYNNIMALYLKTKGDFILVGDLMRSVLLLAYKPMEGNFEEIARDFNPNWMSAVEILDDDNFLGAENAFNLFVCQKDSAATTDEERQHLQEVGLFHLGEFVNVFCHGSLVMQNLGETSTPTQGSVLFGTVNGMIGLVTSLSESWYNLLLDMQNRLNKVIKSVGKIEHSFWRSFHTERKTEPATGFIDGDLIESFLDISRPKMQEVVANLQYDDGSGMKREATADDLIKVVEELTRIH

O=C1CCC(N2Cc3c(ccc4c3OCC43CCN(C[C@H]4C[C@@H]4c4ccccc4)CC3)C2=O)C(=O)N1 (stereo partly drawn) [Compound A332, 3-(6-oxo-1′-(((1S,2S)-2-phenylcyclopropyl)methyl)-6,8-dihydro-2H,7H-spiro[furo[2,3-e]isoindole-3,4′-piperidin]-7-yl)piperidine-2,6-dione]
DC50: > 500 nM

O=C1CCC(N2Cc3c(ccc4c3OCC43CCN(Cc4nccc5c4CCCC5)CC3)C2=O)C(=O)N1 (stereo not shown) [Compound A324, 3-(6-oxo-1′-((5,6,7,8-tetrahydroisoquinolin-1-yl)methyl)-6,8-dihydro-2H,7H-spiro[furo [2,3-e]isoindole-3,4′-piperidin]-7-yl)piperidine-2,6-dione]
DC50: > 500 nM
Dmax: 40 to 60%

N#Cc1ccc(CN2CCC3(CC2)COc2c3ccc3c2CN(C2CCC(=O)NC2=O)C3=O)cc1Cl (stereo not shown) [Compound A33, 2-chloro-4-((7-(2,6-dioxopiperidin-3-yl)-6-oxo-7,8-dihydro-2H,6H-spiro[furo[2,3-e]isoindole-3,4′-piperidin]-1′-yl)methyl)benzonitrile]
DC50: > 500 nM
Dmax: 40 to 60%

O=C1CCC(N2Cc3c(ccc4c3OCC43CCN(Cc4cccc5[nH]cnc45)CC3)C2=O)C(=O)N1 (stereo not shown) [Compound A71, 3-(1′-((1H-benzo[d]imidazol-4-yl)methyl)-6-oxo-6,8-dihydro-2H,7H-spiro[furo[2,3-e]isoindole-3,4′-piperidin]-7-yl)piperidine-2,6-dione]
DC50: > 500 nM
Dmax: 40 to 60%

O=C1CCC(N2Cc3c(ccc4c3OCC43CCN(Cc4ccnn4C4CCOCC4)CC3)C2=O)C(=O)N1 (stereo not shown) [Compound A255, 3-(6-oxo-1′-((1-(tetrahydro-2H-pyran-4-yl)-1H-pyrazol-5-yl)methyl)-6,8-dihydro-2H,7H-spiro[furo[2,3-e]isoindole-3,4′-piperidin]-7-yl)piperidine-2,6-dione]
DC50: > 500 nM
Dmax: < 40%

N#CCc1ccc(CN2CCC3(CC2)COc2c3ccc3c2CN(C2CCC(=O)NC2=O)C3=O)cc1 (stereo not shown) [Compound A196, 2-(4-((7-(2,6-dioxopiperidin-3-yl)-6-oxo-7,8-dihydro-2H,6H-spiro[furo[2,3-e]isoindole-3,4′-piperidin]-1′-yl)methyl)phenyl)acetonitrile]
DC50: 50 to 200 nM
Dmax: 60 to 80%

O=C1CCC(N2Cc3c(ccc4c3OCC43CCN(Cc4ccc(OC(F)F)cc4)CC3)C2=O)C(=O)N1 (stereo not shown) [Compound A197, 3-(1′-(4-(difluoromethoxy)benzyl)-6-oxo-6,8-dihydro-2H,7H-spiro[furo[2,3-e]isoindole-3,4′-piperidin]-7-yl)piperidine-2,6-dione]
DC50: > 500 nM
Dmax: < 40%

CC(C)c1cccc(CN2CCC3(CC2)COc2c3ccc3c2CN(C2CCC(=O)NC2=O)C3=O)c1 (stereo not shown) [Compound A203, 3-(1′-(3-isopropylbenzyl)-6-oxo-6,8-dihydro-2H,7H-spiro[furo[2,3-e]isoindole-3,4′-piperidin]-7-yl)piperidine-2,6-dione]
DC50: > 500 nM
Dmax: < 40%

O=C1CCC(N2Cc3c(ccc4c3OCC43CCN(Cc4ccc5ccccc5c4)CC3)C2=O)C(=O)N1 (stereo not shown) [Compound A34, 3-(1′-(naphthalen-2-ylmethyl)-6-oxo-6,8-dihydro-2H,7H-spiro[furo[2,3-e]isoindole-3,4′-piperidin]-7-yl)piperidine-2,6-dione]
DC50: < 50 nM
Dmax: 60 to 80%

O=C1CCC(N2Cc3c(ccc4c3OCC43CCN(Cc4cccc(N5CCOCC5)c4)CC3)C2=O)C(=O)N1 (stereo not shown) [Compound A97, 3-(1′-(3-morpholinobenzyl)-6-oxo-6,8-dihydro-2H,7H-spiro[furo[2,3-e]isoindole-3,4′-piperidin]-7-yl)piperidine-2,6-dione]
DC50: > 500 nM
Dmax: 40 to 60%

O=C1CCC(N2Cc3c(ccc4c3OCC43CCN(Cc4nn(CC5COCCO5)c5ccccc45)CC3)C2=O)C(=O)N1 (stereo not shown) [Compound A328, 3-(1′-((1-((1,4-dioxan-2-yl)methyl)-1H-indazol-3-yl)methyl)-6-oxo-6,8-dihydro-2H,7H-spiro[furo[2,3-e]isoindole-3,4′-piperidin]-7-yl)piperidine-2,6-dione]
DC50: < 50 nM
Dmax: 60 to 80%

CS(=O)(=O)c1cccc(CN2CCC3(CC2)COc2c3ccc3c2CN(C2CCC(=O)NC2=O)C3=O)c1 (stereo not shown) [Compound A235, 3-(1′-(3-(methylsulfonyl)benzyl)-6-oxo-6,8-dihydro-2H,7H-spiro[furo[2,3-e]isoindole-3,4′-piperidin]-7-yl)piperidine-2,6-dione]
DC50: > 500 nM
Dmax: < 40%

CCc1ccc(CN2CCC3(CC2)COc2c3ccc3c2CN(C2CCC(=O)NC2=O)C3=O)cc1 (stereo not shown) [Compound A16, 3-(1′-(4-ethylbenzyl)-6-oxo-6,8-dihydro-2H,7H-spiro[furo[2,3-e]isoindole-3,4′-piperidin]-7-yl)piperidine-2,6-dione]
DC50: > 500 nM
Dmax: < 40%

CCn1cc(CN2CCC3(CC2)COc2c3ccc3c2CN(C2CCC(=O)NC2=O)C3=O)cn1 (stereo not shown) [Compound A229, 3-(1′-((1-ethyl-1H-pyrazol-4-yl)methyl)-6-oxo-6,8-dihydro-2H,7H-spiro[furo[2,3-e]isoindole-3,4′-piperidin]-7-yl)piperidine-2,6-dione]
DC50: > 500 nM
Dmax: 40 to 60%

O=C1CCC(N2Cc3c(ccc4c3OCC43CCN(Cc4cnn(S(=O)(=O)c5cccc(Cl)c5F)c4)CC3)C2=O)C(=O)N1 [Compound A357, (S)-3-(1′-((1-((3-chloro-2-fluorophenyl)sulfonyl)-1H-pyrazol-4-yl)methyl)-6-oxo-6,8-dihydro-2H,7H-spiro[furo[2,3-e]isoindole-3,4′-piperidin]-7-yl)piperidine-2,6-dione]
DC50: < 50 nM

CCOc1cc(CN2CCC3(CC2)COc2c3ccc3c2CN(C2CCC(=O)NC2=O)C3=O)ccn1 (stereo not shown) [Compound A247, 3-(1′-((2-ethoxypyridin-4-yl)methyl)-6-oxo-6,8-dihydro-2H,7H-spiro[furo[2,3-e]isoindole-3,4′-piperidin]-7-yl)piperidine-2,6-dione]
DC50: > 500 nM
Dmax: < 40%

O=C1CCC(N2Cc3c(ccc4c3OCC43CCN(Cc4ccc5oncc5c4)CC3)C2=O)C(=O)N1 (stereo not shown) [Compound A60, 3-(1′-(benzo[d]isoxazol-5-ylmethyl)-6-oxo-6,8-dihydro-2H,7H-spiro[furo[2,3-e]isoindole-3,4′-piperidin]-7-yl)piperidine-2,6-dione]
DC50: > 500 nM
Dmax: 40 to 60%

CCOc1ccc(CN2CCC3(CC2)COc2c3ccc3c2CN(C2CCC(=O)NC2=O)C3=O)cn1 (stereo not shown) [Compound A202, 3-(1′-((6-ethoxypyridin-3-yl)methyl)-6-oxo-6,8-dihydro-2H,7H-spiro[furo[2,3-e]isoindole-3,4′-piperidin]-7-yl)piperidine-2,6-dione]
DC50: > 500 nM
Dmax: < 40%

O=C1CCC(N2Cc3c(ccc4c3OCC43CCN(Cc4cnn(Cc5ccccc5)c4)CC3)C2=O)C(=O)N1 (stereo not shown) [Compound A209, 3-(1′-((1-benzyl-1H-pyrazol-4-yl)methyl)-6-oxo-6,8-dihydro-2H,7H-spiro[furo[2,3-e]isoindole-3,4′-piperidin]-7-yl)piperidine-2,6-dione]
DC50: < 50 nM
Dmax: 60 to 80%

CS(=O)(=O)c1ccc(CN2CCC3(CC2)COc2c3ccc3c2CN(C2CCC(=O)NC2=O)C3=O)cc1 (stereo not shown) [Compound A236, 3-(1′-(4-(methylsulfonyl)benzyl)-6-oxo-6,8-dihydro-2H,7H-spiro[furo[2,3-e]isoindole-3,4′-piperidin]-7-yl)piperidine-2,6-dione]
DC50: > 500 nM
Dmax: < 40%

[2H]C([2H])([2H])n1ncc2ccc(CN3CCC4(CC3)COc3c4ccc4c3CN([C@H]3CCC(=O)NC3=O)C4=O)cc21 [Compound A300, (S)-3-(1′-((1-(methyl-d3)-1H-indazol-6-yl)methyl)-6-oxo-6,8-dihydro-2H,7H-spiro[furo[2,3-e]isoindole-3,4′-piperidin]-7-yl)piperidine-2,6-dione]
DC50: < 50 nM
Dmax: 60 to 80%

O=C1CCC(N2Cc3c(ccc4c3OCC43CCN(Cc4c(F)ccc5occc45)CC3)C2=O)C(=O)N1 (stereo not shown) [Compound A223, 3-(1′-((5-fluorobenzofuran-4-yl)methyl)-6-oxo-6,8-dihydro-2H,7H-spiro[furo[2,3-e]isoindole-3,4′-piperidin]-7-yl)piperidine-2,6-dione]
DC50: 200 to 500 nM
Dmax: 40 to 60%

O=C1CCC(N2Cc3c(ccc4c3OCC43CCN(Cc4nn(CC5CCCCC5)c5ccccc45)CC3)C2=O)C(=O)N1 (stereo not shown) [Compound A329, 3-(1′-((1-(cyclohexylmethyl)-1H-indazol-3-yl)methyl)-6-oxo-6,8-2H,7H-spiro[furo[2,3-e]isoindole-3,4′-piperidin]-7-yl)piperidine-2,6-dione]
DC50: 50 to 200 nM
Dmax: 60 to 80%

O=C1CCC(N2Cc3c(ccc4c3OCC43CCN(Cc4cccc(Cl)c4)CC3)C2=O)C(=O)N1 (stereo not shown) [Compound A216, 3-(1′-(3-chlorobenzyl)-6-oxo-6,8-dihydro-2H,7H-spiro[furo[2,3-e]isoindole-3,4′-piperidin]-7-yl)piperidine-2,6-dione]
DC50: 50 to 200 nM
Dmax: 60 to 80%
